Data on 28 molecules can be found in patent publication US20090012103A1, “SUBSTITUTED HETEROCYCLIC COMPOUNDS” (priority 2007, published 2009).

The target in this experiment is wild-type human cardiac sodium channel, hNav1.5 (Homo sapiens, UniProt Q14524). Description: Late INa screening assay (late sodium current, PatchXpress whole cell patch clamp). It counts as cell-based. The following applies: read-out: Late INa % blk. As to the method:
The late sodium current (Late INa) and peak sodium current (Peak INa) assays are performed on an automated electrophysiology platform, PatchXpress 7000A (MDS Analytical Technologies, Sunnyvale, Calif.), which uses the whole cell patch clamp technique to measure currents through the cell membrane of up to 16 cells at a time. The assay uses an HEK293 (human embryonic kidney) cell line heterologously expressing the wild-type human cardiac sodium channel, hNav1.5, purchased from Millipore (Billerica, Mass.). No beta subunits were coexpressed with the Na channel alpha subunit. […] Experiments are carried out at 24-27° C.
For both the Late INa and Peak INa assays, series resistance compensation is set to 50% and whole-cell compensation is performed automatically. […] Currents through open sodium channels are automatically recorded and stored in the DataXpress2 database (MDS Analytical Technologies, Sunnyvale, Calif.). Analysis is performed using DataXpress2 analysis software and data are compiled in Excel.
Compound stocks are routinely made in glass vials to 10 mM in dimethyl sulfoxide (DMSO). In some cases, when compounds are not soluble in DMSO, they are made in 100% ethanol. Stocks are sonicated as necessary. The extracellular solution for screening Late INa is composed of: 140 mM NaCl, 4 mM KCl, 1.8 mM CaCl2, 0.75 mM MgCl2, and 5 mM HEPES with pH adjusted to 7.4 using NaOH. The extracellular solution for screening Peak INa is composed of: 20 mM NaCl, 120 mM N-methyl-D glucamine, 4 mM KCl, 1.8 mM CaCl2, 0.75 mM MgCl2, and 5 mM HEPES with pH adjusted to 7.4 using HCl. The intracellular solution used to perfuse the inside of the cells for both the Late INa and Peak INa assays contains: 120 mM CsF, 20 mM CsCl, 5 mM EGTA, 5 mM HEPES and pH adjusted to 7.4 with CsOH. Compounds are diluted in extracellular solution to 10 μM in glass vials and then transferred to glass well plates before robotic addition to the cells. The 0 Na extracellular solution used at the end of each experiment for the Late INa and Peak INa assays to measure baseline current contains: 140 mM N-methyl-D-glucamine; 4 mM KCl; 1.8 mM CaCl2; 0.75 mM MgCl2; 5 mM HEPES and pH was adjusted to 7.4 with HCl.
For the Late INa assay, sodium channels are activated every 10 seconds (0.1 Hz) by depolarizing the cell membrane to −20 mV for 250 milliseconds (ms) from a holding potential of −120 mV.
All compounds are tested to determine their activity in blocking the late sodium current. Late INa current is generated by adding 10 μM Tefluthrin (pyrethroid) to the extracellular solution while recording Na currents. […] For some experiments, 50 nM ATX II (sea anemone toxin), another late INa activator, was used to generate the late component. […] Baseline current in the absence of Na^+ ions is measured at the end of each experiment (after two additions of 0 Na solution-see above) and is used to calculate the percent block by compound.

Structures are written as SMILES. Where two headings read alike, the source gives them in different places.

wild-type human cardiac sodium channel, hNav1.5, sequence (Q14524 whole entry): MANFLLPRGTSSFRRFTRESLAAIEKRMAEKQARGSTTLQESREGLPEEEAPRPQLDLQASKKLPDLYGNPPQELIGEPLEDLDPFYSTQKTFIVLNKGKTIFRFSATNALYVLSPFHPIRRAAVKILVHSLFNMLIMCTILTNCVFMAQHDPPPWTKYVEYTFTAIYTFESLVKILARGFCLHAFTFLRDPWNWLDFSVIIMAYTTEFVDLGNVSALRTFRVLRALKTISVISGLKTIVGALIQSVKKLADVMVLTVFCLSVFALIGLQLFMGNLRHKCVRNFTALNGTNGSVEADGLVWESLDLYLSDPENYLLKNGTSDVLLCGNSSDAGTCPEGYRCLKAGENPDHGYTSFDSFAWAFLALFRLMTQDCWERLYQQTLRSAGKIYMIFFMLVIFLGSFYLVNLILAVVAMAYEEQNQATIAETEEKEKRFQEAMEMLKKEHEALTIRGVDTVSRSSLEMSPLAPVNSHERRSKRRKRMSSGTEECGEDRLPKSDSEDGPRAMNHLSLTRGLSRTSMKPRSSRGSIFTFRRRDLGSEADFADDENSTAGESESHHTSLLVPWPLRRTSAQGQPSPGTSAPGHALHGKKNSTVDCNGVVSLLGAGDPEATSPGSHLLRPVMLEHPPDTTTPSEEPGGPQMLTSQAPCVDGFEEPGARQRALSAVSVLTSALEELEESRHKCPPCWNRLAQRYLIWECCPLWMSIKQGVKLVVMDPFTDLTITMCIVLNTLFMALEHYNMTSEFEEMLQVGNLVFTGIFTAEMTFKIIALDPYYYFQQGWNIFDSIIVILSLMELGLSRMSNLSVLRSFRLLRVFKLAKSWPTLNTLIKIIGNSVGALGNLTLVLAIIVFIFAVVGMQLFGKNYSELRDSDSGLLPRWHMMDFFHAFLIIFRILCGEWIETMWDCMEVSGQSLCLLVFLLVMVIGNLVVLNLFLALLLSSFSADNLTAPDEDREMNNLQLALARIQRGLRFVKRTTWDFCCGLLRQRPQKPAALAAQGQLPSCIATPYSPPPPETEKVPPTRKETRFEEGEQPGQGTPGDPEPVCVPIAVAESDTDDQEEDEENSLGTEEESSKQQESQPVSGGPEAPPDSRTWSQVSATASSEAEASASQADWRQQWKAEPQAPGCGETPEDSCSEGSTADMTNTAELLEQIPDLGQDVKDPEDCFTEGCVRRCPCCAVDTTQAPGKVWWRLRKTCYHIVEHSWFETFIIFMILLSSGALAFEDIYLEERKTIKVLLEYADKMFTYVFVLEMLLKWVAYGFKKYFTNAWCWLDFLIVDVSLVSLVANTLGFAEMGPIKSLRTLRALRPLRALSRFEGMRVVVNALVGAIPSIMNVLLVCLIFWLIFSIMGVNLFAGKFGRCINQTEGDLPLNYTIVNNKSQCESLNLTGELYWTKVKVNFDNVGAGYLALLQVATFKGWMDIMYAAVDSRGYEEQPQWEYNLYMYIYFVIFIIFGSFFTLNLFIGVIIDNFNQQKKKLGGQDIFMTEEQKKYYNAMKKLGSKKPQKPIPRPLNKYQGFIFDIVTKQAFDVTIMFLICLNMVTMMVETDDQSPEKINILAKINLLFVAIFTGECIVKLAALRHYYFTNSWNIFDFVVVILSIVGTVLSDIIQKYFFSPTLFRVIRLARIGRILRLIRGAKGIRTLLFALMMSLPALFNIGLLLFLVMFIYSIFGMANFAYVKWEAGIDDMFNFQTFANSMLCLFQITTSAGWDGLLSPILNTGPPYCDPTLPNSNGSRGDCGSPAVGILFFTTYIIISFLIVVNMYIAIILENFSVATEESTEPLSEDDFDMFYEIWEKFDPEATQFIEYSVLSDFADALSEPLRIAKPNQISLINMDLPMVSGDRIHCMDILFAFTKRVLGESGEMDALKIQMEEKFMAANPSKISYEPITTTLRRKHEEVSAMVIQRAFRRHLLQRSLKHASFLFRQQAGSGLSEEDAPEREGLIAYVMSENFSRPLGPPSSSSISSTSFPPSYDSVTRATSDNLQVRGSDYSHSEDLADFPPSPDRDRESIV

As to `CC1=C(C(=O)OC(C)(C)C)C(c2cccc3ccccc23)n2nnnc2N1` (stereo not shown) [PT-023, tert-butyl 5-methyl-7-(naphthalen-1-yl)-4,7-dihydrotetrazolo[1,5-a]pyrimidine-6-carboxylate], where the note is “compound at 10 μM”, the inhibition at 10 µM was 32.8%. For the molecule `CC1=C(C(=O)OCc2ccccc2)C(c2cccc(Oc3ccccc3)c2)n2nnnc2N1` (stereo not shown) [PT-024, benzyl 5-methyl-7-(3-phenoxyphenyl)-4,7-dihydrotetrazolo[1,5-a]pyrimidine-6-carboxylate], the inhibition at 10 µM was found to be 72.6%. Turning to `CC1=C(C(=O)OCc2ccccc2)C(c2cccc(-c3ccccc3)c2)n2nnnc2N1` (stereo not shown) [PT-026, benzyl 7-(biphenyl-3-yl)-5-methyl-4,7-dihydrotetrazolo[1,5-a]pyrimidine-6-carboxylate], under “compound at 10 μM”, the inhibition at 10 µM came to 10.3%. Regarding `CC1=C(C(=O)OCc2ccccc2)C(c2ccc3ccccc3c2)n2nnnc2N1` (stereo not shown) [PT-028, benzyl 5-methyl-7-(naphthalen-2-yl)-4,7-dihydrotetrazolo[1,5-a]pyrimidine-6-carboxylate], the inhibition at 10 µM (compound at 10 μM) came to 23.1%. Still for that read-out and setting: for `CC1=C(C(=O)OCc2ccc(I)cc2)C(c2cccc3ccccc23)n2nnnc2N1` (stereo not shown) [PT-029, 4-iodobenzyl 5-methyl-7-(naphthalen-1-yl)-4,7-dihydrotetrazolo[1,5-a]pyrimidine-6-carboxylate] the value was 52.1%; for `CC1=C(C(=O)OCc2ccccc2)C(c2ccc(C)c3ccccc23)n2nnnc2N1` (stereo not shown) [PT-031, benzyl 5-methyl-7-(4-methylnaphthalen-1-yl)-4,7-dihydrotetrazolo[1,5-a]pyrimidine-6-carboxylate], 28.6%; for `COc1ccc2c(C3C(C(=O)OCc4ccccc4)=C(C)Nc4nnnn43)ccc(OC)c2c1` (stereo not shown) [PT-033, benzyl 7-(4,6-dimethoxynaphthalen-1-yl)-5-methyl-4,7-dihydrotetrazolo[1,5-a]pyrimidine-6-carboxylate], 23.3%. The same measure, in the same setting: the result for `CC1=C(C(=O)OCc2ccccc2)C(c2ccc3c(c2)OCCO3)n2nnnc2N1` (stereo not shown) [PT-035, benzyl 7-(2,3-dihydrobenzo[b][1,4]dioxin-6-yl)-5-methyl-4,7-dihydrotetrazolo[1,5-a]pyrimidine-6-carboxylate] reads 44%; that for `CC1=C(C(=O)OCc2ccccc2)C(c2cccc3c2OCCO3)n2nnnc2N1` (stereo not shown) [PT-036, benzyl 7-(2,3-dihydrobenzo[b][1,4]dioxin-5-yl)-5-methyl-4,7-dihydrotetrazolo[1,5-a]pyrimidine-6-carboxylate], 41%. On the same count and under the same terms, the result for `CC1=C(C(=O)OCc2ccccc2)C(c2cccc3cccnc23)n2nnnc2N1` (stereo not shown) [PT-037, benzyl 5-methyl-7-(quinolin-8-yl)-4,7-dihydrotetrazolo[1,5-a]pyrimidine-6-carboxylate] reads 34.4%.

For `CC1=C(C(=O)OCc2ccccc2)C(c2cccc3ncccc23)n2nnnc2N1` (stereo not shown) [PT-038, benzyl 5-methyl-7-(quinolin-5-yl)-4,7-dihydrotetrazolo[1,5-a]pyrimidine-6-carboxylate], for the setting “compound at 10 μM”, the inhibition at 10 µM worked out at 11.9%. Same read-out and setting: for `CC1=C(C(=O)OCc2ccccc2)C(c2ccsc2)n2nnnc2N1` (stereo not shown) [PT-041, benzyl 5-methyl-7-(thiophen-3-yl)-4,7-dihydrotetrazolo[1,5-a]pyrimidine-6-carboxylate] the value was 41.4%; for `CC1=C(C(=O)OCc2ccccc2)C(c2cc3ccccc3s2)n2nnnc2N1` (stereo not shown) [PT-043, benzyl 7-(benzo[b]thiophen-2-yl)-5-methyl-4,7-dihydrotetrazolo[1,5-a]pyrimidine-6-carboxylate], 53.8%. In the case of `CC1=C(C(=O)OCc2ccc(C#N)cc2)C(c2cccc3ccccc23)n2nnnc2N1` (stereo not shown) [PT-046, 4-cyanobenzyl 5-methyl-7-(naphthalen-1-yl)-4,7-dihydrotetrazolo[1,5-a]pyrimidine-6-carboxylate], the inhibition at 10 µM (compound at 10 μM) came out at 67%. Still for that read-out and setting: the result for `CC1=C(C(=O)O[C@@H](C)c2ccccc2)[C@H](c2cccc3ccccc23)n2nnnc2N1` [PT-049, (S)-((S)-1-phenylethyl) 5-methyl-7-(naphthalen-1-yl)-4,7-dihydrotetrazolo[1,5-a]pyrimidine-6-carboxylate] reads 35.4%.

As to `CC1=C(C(=O)OCc2ccc(OC(F)(F)F)cc2)C(c2cccc3ccccc23)n2nnnc2N1` (stereo not shown) [PT-052, 4-(trifluoromethoxy)benzyl 5-methyl-7-(naphthalen-1-yl)-4,7-dihydrotetrazolo[1,5-a]pyrimidine-6-carboxylate], under “compound at 10 μM”, the inhibition at 10 µM is 9.1%. The same measure, in the same setting: the result for `COc1ccc2ccccc2c1C1C(C(=O)O[C@@H](C)c2ccccc2)=C(C)Nc2nnnn21` (stereo partly drawn) [PT-053, (S)-1-phenylethyl 7-(2-methoxynaphthalen-1-yl)-5-methyl-4,7-dihydrotetrazolo[1,5-a]pyrimidine-6-carboxylate] reads 53.6%; that for `CC1=C(C(=O)O[C@@H](C)c2ccccc2)C(c2ccc(N(C)C)c3ccccc23)n2nnnc2N1` (stereo partly drawn) [PT-054, (S)-1-phenylethyl 7-(4-(dimethylamino)naphthalen-1-yl)-5-methyl-4,7-dihydrotetrazolo[1,5-a]pyrimidine-6-carboxylate], 72.4%; that for `CC1=C(C(=O)O[C@@H](C)c2ccccc2)C(c2cc3ccccc3o2)n2nnnc2N1` (stereo partly drawn) [PT-058, (S)-1-phenylethyl 7-(benzofuran-2-yl)-5-methyl-4,7-dihydrotetrazolo[1,5-a]pyrimidine-6-carboxylate], 71.4%. Still for that read-out and setting: the result for `CC1=C(C(=O)OCc2ccc(-c3nnn[nH]3)cc2)C(c2cccc3ccccc23)n2nnnc2N1` (stereo not shown) [PT-060, 4-(1H-tetrazol-5-yl)benzyl 5-methyl-7-(naphthalen-1-yl)-4,7-dihydrotetrazolo[1,5-a]pyrimidine-6-carboxylate] reads 5.6%.

As to `CCC(OC(=O)C1=C(C)Nc2nnnn2C1c1cccc2ccccc12)c1ccccc1` (stereo not shown) [PT-063, 1-phenylpropyl 5-methyl-7-(naphthalen-1-yl)-4,7-dihydrotetrazolo[1,5-a]pyrimidine-6-carboxylate], the inhibition at 10 µM (compound at 10 μM) was 47.5%. With `CC1=C(C(=O)OC(C)(C)c2ccccc2)C(c2cccc3ccccc23)n2nnnc2N1` (stereo not shown) [PT-065, 2-phenylpropan-2-yl 5-methyl-7-(naphthalen-1-yl)-4,7-dihydrotetrazolo[1,5-a]pyrimidine-6-carboxylate], the inhibition at 10 µM (compound at 10 μM) is 59%.

As for `CC1=C(C(=O)N2CCC(c3ccccc3)CC2)C(c2cccc3ccccc23)n2nnnc2N1` (stereo not shown) [PT-066, (5-methyl-7-(naphthalen-1-yl)-4,7-dihydrotetrazolo[1,5-a]pyrimidin-6-yl)(4-phenylpiperidin-1-yl)methanone], the inhibition at 10 µM (compound at 10 μM) came out at 22.2%. In the case of `CC1=C(C(=O)NCc2ccccc2)C(c2cccc3ccccc23)n2nnnc2N1` (stereo not shown) [PT-067, N-benzyl-5-methyl-7-(naphthalen-1-yl)-4,7-dihydrotetrazolo[1,5-a]pyrimidine-6-carboxamide], the inhibition at 10 µM (compound at 10 μM) is 24.4%. Same read-out and setting: for `CC1=C(C(=O)NNC(=O)c2ccccc2)C(c2cccc3ccccc23)n2nnnc2N1` (stereo not shown) [PT-069, N′-benzoyl-5-methyl-7-(naphthalen-1-yl)-4,7-dihydrotetrazolo[1,5-a]pyrimidine-6-carbohydrazide] the value was 11.5%; for `CC1=C(C(=O)N[C@H](C)c2ccccc2)C(c2cccc3ccccc23)n2nnnc2N1` (stereo partly drawn) [PT-070, 5-methyl-7-(naphthalen-1-yl)-N-((R)-1-phenylethyl)-4,7-dihydrotetrazolo[1,5-a]pyrimidine-6-carboxamide], 9.9%; for `CC1=C(C(=O)N[C@@H](C)c2ccccc2)C(c2cccc3ccccc23)n2nnnc2N1` (stereo partly drawn) [PT-071, 5-methyl-7-(naphthalen-1-yl)-N-((S)-1-phenylethyl)-4,7-dihydrotetrazolo[1,5-a]pyrimidine-6-carboxamide], 16.3%. The same measure, in the same setting: for `O=C1CCCC2=C1C(c1cccc3ccccc13)n1nnnc1N2` (stereo not shown) [PT-072, 9-(naphthalen-1-yl)-5,6,7,9-tetrahydrotetrazolo[5,1-b]quinazolin-8(4H)-one] the value was -0.9%.
